From PMC10300873, “Characterization of Polyphenols from Chenopodium botrys after Fractionation with Different Solvents and Study of Their In Vitro Biological Activity” (Molecules, 2023)

Tested on: T1, trypsin
T1 construct: gene PRSS1
Assay: antitryptic activity: albumin digestion, perchloric acid precipitation, A280
Assay type: biochemical
Settings: human albumin (4% v/v) as substrate, Tris-HCl pH 7.4, 37 °C, 5 min preincubation, 20 min reaction
Source text: antitryptic activity: albumin digestion, perchloric acid precipitation, A280 on trypsin

ATA / IC50 ± SD: 259.82 ± 9.14 µg/mL
SMILES: CC(C)Cc1ccc(C(C)C(=O)O)cc1 (stereo not shown) [ibuprofen]
